# Measured values taken from patent publication US20260159561A1 (MyNeuroCure Oy, priority 2017, published 2026).
# B1: MANF: mesencephalic astrocyte-derived neurotrophic factor; mature human MANF, SEQ ID NO: 9, 158 amino acids (protein, listed as Homo sapiens)
# chain: LRPGDCEVCISYLGRFYQDLKDRDVTFSPATIENELIKFCREARGKENRLCYYIGATDDAATKIINEVSKPLAHHIPVEKICEKLKKKDSQICELKYDKQIDLSTVDLKKLRVKELKKILDDWGETCKGCAEKSDYIRKINELMPKYAPKAASARTDL
# Tests used:
# E14 dopamine neurons = assay: Internalization of iodinated proteins into dopamine neurons; assay type: cell-based, mouse; conditions: 30,000 cpm iodinated protein, 37° C., 2 hr, acid wash
# Description: 2 hr. The cells were transferred to ice and washed once with 0.5 ml of the ice cold media. Then cells were transferred to Eppendorf tubes and washed at 4° C. once with 0.2M acetic acid, 0.5M NaCl, pH 2.8.
# rat PC6 cells = assay: Internalization of iodinated proteins into PC6.3 cells; assay type: cell-based; conditions: PC6 cells with or without thapsigargin, 90 min, acid wash
# Description: Rat PC6.3 pheochromocytoma cells were grown on the 24 well plate in DMEM culture with 10% FCS and 5% horse serum. […] 90 min. The cells were put on ice, washed once with 0.5 ml of the ice cold media. Then cells were transferred to Eppendorf tubes and washed once with 0.2M acetic acid, 0.5M NaCl, pH 2.8. After centrifugation at 1000 g for 10 min cells were dissolved in 0.5 ml of 0.5 N NaOH and counted in Wizard 3 1480 Automatic Gamma Counter (Perkin Elmer, Wallac).
# [1] = test system: rats in the 6-OHDA model of Parkinson's disease; conditions: applied before the toxin; cited from earlier work
# [2] = test system: ER stressed superior cervical ganglia (SCG) sympathetic neurons; assay: Survival of tunicamycin ER-stressed SCG neurons microinjected with expression plasmids; assay type: cell-based, mouse; conditions: expressed from microinjected plasmids; tunicamycin 2 μM; counted after three days
# Description: (§1) Non-neuronal cells were removed by extensive preplating. Almost pure neurons were cultured in polyornithine/laminin (Sigma)-coated 35-mm plastic dishes in the small-size standard microislands in the Neurobasal medium and B27 supplement (Invitrogen/Gibco) in the presence of 30 ng/ml mouse nerve growth factor (NGF) (Promega) for 5-6 days. NGF was deprived by extensive washing and addition of the function-blocking anti-NGF antibodies (Roche). The neurons were pressure-microinjected with special neuronal microinjection equipment (Hellman et al., 2011; Hamner et al., 2001; Lindholm et al., 2002; Sun et al., 2001; Yu et al., 2003)(Sun et al., 2001; Sun et al., 2003). For the survival assay, all neurons on the microislands were counted in the beginning (initial number) and the end (three days) of the experiment and expressed as % of initial.
# (§2) Microinjection of the sympathetic neurons was performed as described earlier (Yu, L. Y., Jokitalo, E., Sun, Y. F., Mehlen, P., Lindholm, D., Saarma, M., and Arumäe, U. (2003) J. Cell Biol. 163, 987-997). […] Next day tunicamycin (2 μM) was added, and after 3 days the living fluorescent neurons were counted. Living fluorescent (EGFP-expressing or Dextran Texas Red-containing) neurons were “blindly” counted three days later and expressed as percent of initial living fluorescent neurons counted 2-3 hours after microinjection. […]
# [3] = test system: Huntington's disease rat model (quinolinic acid); assay: Quinolinic acid Huntington's disease rat model, rotarod and grip strength; assay type: in vivo; conditions: single intrastriatal injection 2 weeks after QA, equimolar to CDNF 10 micrograms, vs QA+PBS
# Source text: Adult Wistar rats received a single, unilateral intrastriatal injection of quinolinic acid (QA) 225 nmol into coordinates: A/P+0.7; L/M+2.8; D/V −6.0. Quinolinic acid is a toxin that induces striatal neuron death by an excitotoxic process. […] Rats were randomized to groups before the treatments started. Rotarod and grip strength tests were done weekly.
# ER stressed SCG neurons = assay: Survival of tunicamycin ER-stressed SCG neurons microinjected with recombinant protein; assay type: cell-based, mouse; conditions: recombinant protein microinjected into the cytoplasm; tunicamycin 2 μM; counted after 3 days
# Description: as §1, §2
molecule,measurement,setting,value
^125I-CDNF: full length CDNF iodinated with 125I-Na using the lactoperoxidase method,radioactivity inside the cells (internalization),E14 dopamine neurons,not ^125I-CDNF is efficiently internalized
same,radioactivity inside the cells (cell membrane penetration),rat PC6 cells,not full length iodinated CDNF penetrate cell membrane
"CDNF: cerebral dopamine neurotrophic factor; mature human CDNF, SEQ ID NO: 7, 161 amino acids",6-OHDA-induced behavioral and histological symptoms,[1],potently prevent the 6-OHDA-induced behavioral and histological symptoms
same,"living fluorescent neurons, percentage of initial neurons",[2],rescue ER stressed superior cervical ganglia (SCG) sympathetic neurons
same,rotarod latency to fall (motor behavior),[3],not CDNF improved motor behavior statistically significantly
same,"living fluorescent neurons, percentage of initial neurons",ER stressed SCG neurons,rescue ER stressed SCG neurons
B1,6-OHDA-induced behavioral and histological symptoms,[1],potently prevent the 6-OHDA-induced behavioral and histological symptoms
